Legend:
Assay type in all cases: cell-based
[1] = system: NBT-II cells; assay: EMT spot migration assay, EGF induced EMT; details: for IC50: EMT induced by EGF (20 ng/mL), NBT-II cells, read-out: Cell Dispersion IC50 (nM) EGF
Procedure: (§1) Stably transfected mcherry fluorescence-labeled NET-II cells are maintained in DMEM supplemented with 10% fetal bovine serum (FBS, Thermo Scientific), 1 μg/mL puromycin (Sigma), 100 units/mL penicillin−100 units/mL streptomycin (1×pen-strep, Invitrogen) and 2 mM L-glutamine (Invitrogen).
(§2) Test compounds were purchased from various vendors (Selleck Chemicals, Sigma Aldrich, SYN|thesis Med Chem, and Tocris Bioscience). For screening studies, test compounds at both 0.25 mM and 1.0 mM concentrations in DMSO are prepared, each occupying a single well in columns 2 to 11 of 96-well V-bottom plates (Greiner). For dose response studies, selected test compounds were prepared in duplicate wells and serial diluted in DMSO, starting a 1.0 mM concentration. Compound stock plates were stored at −20° C. and thawed at room temperature before use.
(§3) A schematic for the spot migration assay is illustrated in FIG. 2. Cells were grown up to 80% confluency in tissue culture flasks prior to cell plating. Cells were first trypsinized, concentrated and re-suspended to a density of 5×10^6 cell/mL in CO2 independent medium (Invitrogen) supplemented with 10% FBS. The cell suspension was then evenly aliquoted into the wells of 2 columns of a 96-well V-bottom plate. Using a robotic liquid handling station (Bravo, Agilent Technologies), 0.5 μL of cell suspension was transferred from the 2 columns of the cell suspension-loaded plate and deposited into the center of the wells of 2 columns of a 96-well clear bottom, black assay plate (Corning). This process was repeated six times so that all 96 wells of the assay plate were deposited with a cell suspension spot. The plate was then sealed to minimize evaporation of the cell suspension spots and transferred to a 37° C., 5% CO2 incubator to allow for cells to attach to the culture surface. After one hour, the plate was gently washed with medium once to remove unattached cells, refreshed with 100 μL assay medium (DMEM supplemented with 10% FBS, 1× pen-strep and 2 mM L-glutamine), and then further incubated to allow for cell-cell contacts to establish in the cell colonies.
Four tiled, non-overlapping images were acquired around the center of each well, which were then stitched together during image analysis to generate a montage covering an area of 3.2 mm×3.2 mm. These images (T1) represent the initial state of the cell colonies before EMT induction.
After the T1 images are acquired, 1 μL of test compounds were transferred from compound stock plates and added to the assay plates. […] The cultures were then further incubated overnight.
The next day, 50 μL of growth factor containing medium was added each well of the assay plates. For each of the EGF, HGF or IGF-1 induced EMT spot migration assays, the final growth factor concentrations was adjusted in each well to be 20 ng/mL EGF (Sigma), 4 ng/mL HGF (Calbiochem) or 150 ng/mL IGF-1 (R&D Systems), respectively. The cultures were then incubated for another 24 hours, to allow for EMT and sufficient cell motility/dispersion to occur in the cell colonies.
Finally, the cell colonies were imaged again using the confocal microplate imager as described above. These images (T2) represent the final state of the cell colonies after compound treatment and EMT induction. The acquired T1 and T2 image sets for each assay plate were then subjected to image analysis.
Acquired image sets were loaded into image analysis routine developed using Metamorph software. Briefly, a complete image of the entire cell colony in a well was first obtained by stitching the four tiled, non-overlapping images together. Image analysis consists of counting the cell number and measuring the area occupied by the cells. The positive nuclei were segmented using a wavelet decomposition scheme to remove the photonic noise and the inhomogeneous background. A watershed procedure was used to refine the result by separating the confluent nuclei.

[2] = system: NBT-II cells; assay: EMT spot migration assay, HGF induced EMT; details: EMT induced by HGF (4 ng/mL), read-out: Cell Dispersion IC50 (nM) HGF
Procedure: as §1, §2, §3
After 4 hours of incubation, the cell colonies for each well were imaged using a confocal microplate imager (MetaXpress Ultra, Molecular Devices) with 10× Plan Fluor objective, 561 nm laser excitation and 593/40 nm emission filter configuration. Four tiled, non-overlapping images were acquired around the center of each well, which were then stitched together during image analysis to generate a montage covering an area of 3.2 mm×3.2 mm. These images (T1) represent the initial state of the cell colonies before EMT induction.
After the T1 images are acquired, 1 μL of test compounds were transferred from compound stock plates and added to the assay plates. […]

[3] = system: NBT-II cells; assay: EMT spot migration assay, IGF-1 induced EMT; details: EMT induced by IGF-1 (150 ng/mL), read-out: Cell Dispersion IC50 (nM) IGF-1
Procedure: as §1, §2
as §3, with “After one hour, the plate was gently washed with medium once to remove unattached cells, refreshed with 100 μL assay medium (DMEM supplemented with 10% FBS, 1× pen-strep and 2 mM L-glutamine), and then further incubated to allow for cell-cell contacts to establish in the cell colonies.” left out

[4] = system: SKOV3 cells; assay: EMT reversal assay (morphology, Western blot) in SKOV3; details: SKOV3, 2 μM for 3 days
Procedure: (§4) SKOV3, HEY and OVCAR-2 cells were maintained in RPMI (Invitrogen) supplemented with 10% fetal bovine serum (FBS, Thermo Scientific), 1 μg/mL puromycin (Sigma), 100 units/mL penicillin−100 units/mL streptomycin (1× pen-strep, Invitrogen) and 2 mM L-glutamine (Invitrogen). AZD0530 and BIBF-1120 were purchased from Selleck Chemicals and SYN|thesis Med Chem respectively. DMSO was used as a vehicle to dissolve both compounds. A stock concentration of 10 mM was prepared for both compounds and stored at −20° C. and aliquots were thawed at room temperature before use. Cells were grown up to 80% confluency in tissue culture flasks prior to cell plating. Cells were first trypsinized, concentrated and re-suspended to a density of 1×10^6 cell/mL in RPMI supplemented with 10% FBS. For each cell lines, 1×10^5 cells were plated onto 100 mm cell culture treated dishes (Nunc) for each condition. The cells were then allowed to attach to the culture dish surface and grow overnight in 37° C., 5% CO2 incubator. In drug conditions, the cells were then incubated with each of the compounds at a final concentration of 2 μM for 3 days to allow cell-cell contacts to establish in the dispersed culture. The medium was aspirated from the culture dishes and the cells were washed with PBS Ca^2+, Mg^2+ before they were snap-frozen with liquid nitrogen. Cells were lysed with RIPA buffer (Sigma) supplemented with protease inhibitor cocktail (Calbiochem) and phosphatase inhibitor cocktail (Roche). Protein concentration was measured using BCA (Pierce) protocol provided by the manufacturer. 8% polyacrylamide gels were used for the separation of proteins and transferred to PDVF membranes (Millipore). Membranes were blocked in 5% non-fat milk (Bio-rad) and incubated at 4 degree Celsius overnight with primary antibodies. E-cadherin antibody was purchased from BD laboratories, MMP13 antibody was purchased from Millipore and Tubulin was purchased from Sigma. […] The raw intensity of the protein bands were quantified using GeneTools software (Syngene).

[5] = system: HEY cells; assay: EMT reversal assay (morphology, Western blot) in HEY; details: 2 μM for 3 days
Procedure: as §4

[6] = system: OVCAR-2 cells; assay: EMT reversal assay (morphology, Western blot) in OVCAR-2; details: OVCAR-2, 2 μM for 3 days
Procedure: as §4

| IC50 [1] [nM] | IC50 [2] [nM] | IC50 [3] [nM] | Structure (SMILES) | further results |
| --- | --- | --- | --- | --- |
| 1720 | – | – | Cc1ccc(-c2nn(C(C)(C)C)c3ncnc(N)c23)cc1 [PP 1] | – |
| 350 | – | – | COc1cc2ncnc(Nc3cccc(Cl)c3)c2cc1OC [AG 1478] | Cell Dispersion ratio ([1]; PosCtrl condition: [AG1478]=6.67 microM and [EGF]=20 ng/mL, NegCtrl 2.50±0.12): 1.48±0.05 |
| 565 | 650 | – | CN1CCN(CCOc2cc(OC3CCOCC3)c3c(Nc4c(Cl)ccc5c4OCO5)ncnc3c2)CC1 [AZD 0530] | Morphology after treatment ([4]; vs DMSO): restored the epithelioid-like morphology; E-cadherin protein levels (Western blot) ([4]; vs vehicle): greater increase; MMP13 protein levels (Western blot) ([4]; vs vehicle): greater reduction; Morphology after treatment ([5]; vs DMSO): restored the epithelioid-like morphology; E-cadherin protein levels (Western blot) ([5]; vs vehicle): greater increase; MMP13 protein levels (Western blot) ([5]; vs vehicle): greater reduction; Morphology after treatment ([6]; vs DMSO): formed tighter cobblestone-like cell colonies; E-cadherin protein levels (Western blot) ([6]; vs vehicle): increased; MMP13 protein levels (Western blot) ([6]; vs vehicle): reduced |

More lines, now with the values behind:

| Structure (SMILES) | IC50 [1] [nM] | IC50 [2] [nM] | IC50 [3] [nM] | further results |
| --- | --- | --- | --- | --- |
| S=C(NCc1ccc2c(c1)OCO2)N1CCN(c2ncnc3c2oc2ccccc23)CC1 [MP-470] | 510 | 970 | 580 | – |
| Cn1cc(-c2ccc3nnc(C(F)(F)c4ccc5ncccc5c4)n3n2)cn1 [JNJ.38877605] | – | 43 | – | – |
| Cn1cnc2c(F)c(Nc3ccc(Br)cc3Cl)c(C(=O)NOCCO)cc21 [AZD 6244] | – | 471 | 534 | – |
| Cc1cc(N2CCOCC2)cc2[nH]c(-c3c(NC[C@@H](O)c4cccc(Cl)c4)cc[nH]c3=O)nc12 [BMS 536924] | 6600 | – | – | – |
| COc1cc2ncnc(Nc3ccc(O)c(Br)c3)c2cc1OC [WHI-P 154] | 590 | – | – | – |
| CS(=O)(=O)N1CCN(Cc2cc3nc(-c4cccc5[nH]ncc45)nc(N4CCOCC4)c3s2)CC1 [GDC-0941] | – | – | 490 | – |
